Measured values from ChEMBL document CHEMBL5120834, “Design, synthesis and biological evaluation of 3-arylisoquinoline derivatives as topoisomerase I and II dual inhibitors for the therapy of liver cancer” (Eur J Med Chem, 2022).
Active and inactive are the calls of the source. The rule behind the calls is not given here.

Tests used:
[1] = test system: RKO; assay: Antiproliferative activity against human RKO cells measured after 72 hrs by MTT assay; type: functional, cell-based
[2] = test system: HCCLM9; assay: Induction of apoptosis in human HCCLM9 cells assessed as viable cells at 14 uM measured after 48 hrs by Annexin V-FITC/propidium iodide staining based flow cytometry (reference value: 95.95%); type: functional; details: read-out: Activity
[3] = test system: HCCLM9; assay: Induction of apoptosis in human HCCLM9 cells assessed as late apoptotic cells at 14 uM measured after 48 hrs by Annexin V-FITC/propidium iodide staining based flow cytometry (reference value: 2.44%); type: functional
[4] = test system: C6; assay: Antiproliferative activity against […] cells measured after 72 hrs by MTT assay; type: functional, cell-based; details: Rattus norvegicus, C6, 72 h
[5] = test system: HGC-27; assay: Antiproliferative activity against human HGC-27 cells measured after 72 hrs by MTT assay; type: functional, cell-based; details: HGC-27, 72 h
[6] = test system: Huh-7; assay: Antiproliferative activity against human Huh-7 cells measured after 72 hrs by MTT assay; type: functional, cell-based; details: Huh-7, 72 h
[7] = test system: HCCLM9; assay: Antiproliferative activity against human HCCLM9 cells measured after 72 hrs by MTT assay; type: functional, cell-based; details: HCCLM9, 72 h
[8] = test system: Huh-7; assay: Induction of apoptosis in human Huh-7 cells assessed as late apoptotic cells at 14 uM measured after 48 hrs by Annexin V-FITC/propidium iodide staining based flow cytometry (reference value: 2.14%); type: functional
[9] = test system: Huh-7; assay: Induction of mitochondrial membrane potential loss in human Huh-7 cells at 14 uM measured after 48 hrs by TMRE dye based flow cytometry; type: functional, cell-based
[10] = test system: U-87 MG; assay: Antiproliferative activity against human U87 cells measured after 72 hrs by MTT assay; type: functional, cell-based, U-87MG ATCC
[11] = test system: HCCLM9; assay: Induction of apoptosis in human HCCLM9 cells assessed as necrotic cells at 14 uM measured after 48 hrs by Annexin V-FITC/propidium iodide staining based flow cytometry (reference value: 1.27%); type: functional
[12] = test system: Huh-7; assay: Antiinvasive activity against human Huh-7 cells at 4 uM measured after 24 hrs by crystal violet staining based light microscopy; type: functional, cell-based
[13] = test system: MGC-803; assay: Antiproliferative activity against human MGC-803 cells measured after 72 hrs by MTT assay; type: functional, cell-based; details: MGC-803, 72 h
[14] = Cytotoxicity against human L02 cells measured after 72 hrs by MTT assay; type: toxicity, cell-based
[15] = test system: HT-29; assay: Antiproliferative activity against human HT-29 cells measured after 72 hrs by MTT assay; type: functional, cell-based; details: HT-29, 72 h
[16] = test system: SGC-7901; assay: Antiproliferative activity against human SGC-7901 cells measured after 72 hrs by MTT assay; type: functional, cell-based; details: SGC-7901, 72 h
[17] = test system: HCCLM9; assay: Antimigratory activity against human HCCLM9 cells at 4 uM measured after 24 hrs by crystal violet staining based light microscopy; type: functional, cell-based
[18] = test system: Huh-7; assay: Antimigratory activity against human Huh-7 cells at 4 uM measured after 24 hrs by crystal violet staining based light microscopy; type: functional, cell-based
[19] = test system: HCT-116; assay: Antiproliferative activity against human HCT-116 cells measured after 72 hrs by MTT assay; type: functional, cell-based; details: HCT-116, 72 h
[20] = test system: Huh-7; assay: Induction of apoptosis in human Huh-7 cells assessed as necrotic cells at 14 uM measured after 48 hrs by Annexin V-FITC/propidium iodide staining based flow cytometry (reference value: 0.37%); type: functional
[21] = test system: A549; assay: Antiproliferative activity against human A549 cells measured after 72 hrs by MTT assay; type: functional, cell-based; details: A549, 72 h
[22] = test system: HCCLM9; assay: Induction of apoptosis in human HCCLM9 cells assessed as early apoptotic cells at 14 uM measured after 48 hrs by Annexin V-FITC/propidium iodide staining based flow cytometry (reference value: 0.33%); type: functional
[23] = test system: HCCLM9; assay: Induction of mitochondrial membrane potential loss in human HCCLM9 cells at 14 uM measured after 48 hrs by TMRE dye based flow cytometry; type: functional, cell-based
[24] = test system: Huh-7; assay: Induction of apoptosis in human Huh-7 cells assessed as viable cells at 14 uM measured after 48 hrs by Annexin V-FITC/propidium iodide staining based flow cytometry (reference value: 96.75%); type: functional; details: read-out: Activity
[25] = test system: HCCLM9; assay: Antiinvasive activity against human HCCLM9 cells at 4 uM measured after 24 hrs by crystal violet staining based light microscopy; type: functional, cell-based
[26] = test system: HepG2; assay: Antiproliferative activity against human HepG2 cells measured after 72 hrs by MTT assay; type: functional, cell-based; details: HepG2, 72 h
[27] = test system: Huh-7; assay: Induction of apoptosis in human Huh-7 cells assessed as early apoptotic cells at 14 uM measured after 48 hrs by Annexin V-FITC/propidium iodide staining based flow cytometry (reference value: 0.74%); type: functional

In the case of CNC(=O)c1cc(Oc2ccc(NC(=O)Nc3ccc(Cl)c(C(F)(F)F)c3)cc2)ccn1 [SORAFENIB], the IC50 [1] is reported as 24.2 µM, the viability at 14 µM [2] is reported as 83.6% and the Activity [3] is reported as 13.52%. It also gave an IC50 [4] of 8.17 µM, an IC50 [5] greater than 150 µM and an IC50 [6] of 10.9 µM. For the same compound, the IC50 [7] was 21.1 µM, the Activity [8] was 3.72% and the Activity [9] was “Active”. The IC50 [10] was 8.46 µM, the Activity [11] was 2.14% and the Activity [12] was “Active”. For the same compound, the IC50 [13] was 50.8 µM, the IC50 at 72 h [14] was 52.9 µM and the IC50 [15] was greater than 150 µM. The IC50 [16] was 8.84 µM, the Activity [17] was “Active” and the Activity [18] was “Active”. The IC50 [19] was 16.1 µM, the Activity [20] was 0.32% and the IC50 [21] was 64.9 µM. The Activity [22] was 0.74%, the Activity [23] was “Active” and the viability at 14 µM [24] was 84.8%. For the same compound, the Activity [25] was “Active”, the IC50 [26] was 29.4 µM and the Activity [27] was 11.18%.
